The test system of one experiment is bacterial membrane. The conditions noted are these: cited from earlier work.
The test system of experiment [1] is E. aerogenes EA289, P. aeruginosa PAO1, and K. pneumoniae KPC2-ST258. Kind of experiment: Determination of antibiotic MIC in the presence of compounds (restoring enhancer concentration). It counts as cell-based. How it is done: Determination of antibiotic MIC in the presence of compounds: Briefly, restoring enhancer concentrations were determined with an inoculum of 5×10^5 colony forming unit (CFU) in MH broth (200 μL) containing twofold serial dilutions of each derivative and antibiotic (chloramphenicol, doxycycline, cefepime, or erythromycin; 2 μg/mL). […] Measurements were repeated in triplicate.

Experiment [2] concerns S. aureus RN4220, P. aeruginosa PAO1 and E. coli ANSI. As to conditions: cited from earlier work; for antibacterial activity: unsubstituted diamines; for activity against S. aureus RN4220, P. aeruginosa PAO1 and E. coli ANSI: higher polyamines.
The next experiment deals with P. aeruginosa PAO1. Kind of experiment: MIC of doxycycline against P. aeruginosa PAO1. The conditions noted are these: Pseudomonas aeruginosa. It counts as cell-based. On the procedure:
Antibiotics: All the antibiotics were purchased from Sigma-Aldrich except for doxycycline which was purchased from TCI Europe (Zwijndrecht, Belgium). All antibiotics were dissolved in water. The susceptibility of bacterial strains to antibiotics and compounds was determined in microplates by the standard broth dilution method, according to the recommendations of the Comité de l'AntibioGramme de la Société Française de Microbiologie (CA-SFM).^[36] Briefly, MICs were determined with an inoculum of 10^5 CFU in of MH broth (200 μL) containing twofold serial dilutions of each drug. […] Measurements were repeated in triplicate.

The test system of experiment [3] is Staphylococcus aureus ATCC25923. Kind of experiment: ATP release (membrane disruption) in S. aureus. It counts as cell-based. The conditions noted are these: ATP release for 1 min, 100 μg/mL. On the procedure:
Measurement of ATP efflux: Squalamine were prepared in doubly distilled water at different concentrations. A suspension of growing S. aureus or E. aerogenes (EA289) in MH broth was incubated at 37° C. The suspension (90 μL) was added to squalamine solution (10 μL, synthesized in lab according to reported procedures), and the mixture was vortexed for Is. Luciferin-luciferase reagent (Yelen, France; 50 μL) was immediately added, and luminescence was quantified with an Infinite M200 microplate reader (Tecan) for 5 s. ATP concentration was quantified by addition of a known amount of ATP (1 μM).

A further experiment deals with E. aerogenes EA289. Kind of experiment: Nitrocefin hydrolysis assay (outer membrane permeabilization). Type of experiment: cell-based, Enterobacter aerogenes. The conditions noted are these: 5b even at 3.9 μM, compared to spermine-treated or untreated control. On the procedure: Nitrocefin hydrolysis assay: Outer membrane permeabilization was measured by using nitrocefin, a chromogenic substrate of periplasmic β-lactamase. MH broth (10 mL) was inoculated with of an overnight culture (0.1 mL) of EA289 and grown at 37° C. to OD600=0.5. The remaining steps were performed at room temperature. Cells were recovered by centrifugation (3600 G, 20 min) and washed once with potassium phosphate buffer (PPB) (20 mM, pH 7.2) containing MgCl2 (1 mM). After another centrifugation, the pellet was resuspended in PPB (100 μL) and adjusted to OD600=0.5. Then, either Polymyxin B (positive control; Sigma-Aldrich) or 5b (50 μL) was added to the cell suspension (100 gm/L) to final concentrations of 0.98-500 μM “2.5, 15, 62.5, and 125 μM”. Nitrocefin (50 μL, 50 μg/mL; Oxoid) was added, and its hydrolysis was monitored spectrophotometrically by measuring the increase in absorbance at 490 nm. Assays were performed in 96-well plates with an M200 Pro spectrophotometer (Tecan).

For orientation: MIC means the least concentration at which growth counts as inhibited.

Regarding `S=C(NCCCNCCCCCNCCCNC(=S)NCC(c1ccccc1)c1ccccc1)NCC(c1ccccc1)c1ccccc1` [1,13-bis (((2,2-diphenyl)-1-ethyl)thioureido)-4,10-diazatridecane], the cytoplasmic membrane depolarization entry in the experiment with bacterial membrane is reported as “depolarize the cytoplasmic membrane”.

Consider `Cl.Cl.NCCCCNCc1c2ccccc2cc2ccccc12` [7b], for which, in experiment [1] (antibiotic 2 μg/mL, PAO1, EA289 and KPC2-ST258), the “synergy with chloramphenicol and erythromycin” value was “weak or no activity”. In addition, the “restoration of doxycycline activity” value in experiment [1] (doxycycline 2 μg/mL, derivative even at 40 μM) was “no improvement”.

As for `NCCCCCN` [cadaverine], the membrane rupture entry in the experiment with bacterial membrane is on record as “did not cause membrane rupture”. Moreover, in experiment [2], the antibacterial activity result was “no antibacterial activity”.

For `C[C@H]1c2cccc(O)c2C(=O)C2=C(O)[C@]3(O)C(=O)C(C(N)=O)=C(O)[C@@H](N(C)C)[C@@H]3[C@@H](O)[C@@H]21` [doxycycline], the MIC in the experiment with P. aeruginosa PAO1 came out at 16 µg/mL.

`NCCCCN` [putrescine]: the membrane rupture entry in the experiment with bacterial membrane is “did not cause membrane rupture”. In addition, the antibacterial activity entry in experiment [2] is listed as “no antibacterial activity”.

Regarding `NCCCCNCCCN` [spermidine], the “activity against S. aureus RN4220, P. aeruginosa PAO1 and E. coli ANSI” value in experiment [2] is “inactive”.

As to `NCCCNCCCCNCCCN` [spermine], the “ATP release (disruption of the bacterial membrane)” value in experiment [3] is given as “no significant effect”. For the same compound, the “activity against S. aureus RN4220, P. aeruginosa PAO1 and E. coli ANSI” value in experiment [2] is “inactive”.

Regarding `CC(C)[C@@H](CC[C@@H](C)[C@H]1CC[C@H]2[C@@H]3[C@H](O)C[C@H]4C[C@@H](NCCCNCCCCN)CC[C@]4(C)[C@H]3CC[C@]12C)OS(=O)(=O)O` [squalamine], the “ATP release (disruption of the bacterial membrane)” value in experiment [3] is recorded as “dramatic disruption of the bacterial membrane”.

On to polymyxin-B, for which, in the experiment on E. aerogenes EA289, the “rate of nitrocefin hydrolysis” value is “increase in nitrocefin hydrolysis”.
